Key:
[1] = tested on: HIV-1 strains, for e.g., 92HT599; test: Antiviral activity: p24 estimation in MT-2 cells infected with HIV-1; format: cell-based; conditions: Human immunodeficiency virus 1, MT2, MT-2 cells infected with HIV-1, p24, ~96 hours; for IC50: read-out: Antiviral activity IC50 (nM) Efficacy IC50
Experimental: MT-2 cells were infected with required number of TCID50's of HIV-1 strains, for e.g., 92HT599. The infected cells were plated at the concentration of 30, 000 cells per well in a 96 well plate. Test compound was added to the 96 well plate with the final concentration of DMSO (vehicle—not more than 1%). The plates are then incubated in a CO2 incubator for ˜96 hours (˜4 days) for viral infection. At the end of incubation period an aliquot from each well was taken for p24 estimation. The quantitation of p24 is an estimated index for antiviral activity of the compound. Percent inhibition was calculated with reference to control values (vehicle controls).
p-24 estimation was carried out using Advance biosciences kit as per the procedure detailed by supplier.

[2] = Single dose oral pharmacokinetic study; format: in vivo; conditions: mouse, mice, 30 mg/kg, plasma; for AUC(0-t): read-out: Mice oral PK @30 mg/kg AUC 0-t; for Cmax: read-out: Mice oral PK @30 mg/kg Cmax
Experimental: The test item was administered through oral route to animals (rat/mice) at 30 mg/kg dose in a suitable vehicle at 10 ml/kg dose volume. Blood samples (˜50 uL at each time point) were collected from retro-orbital plexus using K3 EDTA as anticoagulant in eppend; orf tubes at defined time intervals under light ether anesthesia. The samples were centrifuged at 3500×g to separate plasma and stored at −80° C. until analysis.
Sample analysis: Test samples were analyzed using LC-MS-MS after developing fit-for-purpose method for each of test compound.

Compound | IC50 [1] | AUC(0-t) [2] | Cmax [2] | inhibition at 0.1 µM [1] | inhibition at 1 µM [1]
COCCO[C@@H]1C[C@@H](c2nc(-c3ccc(F)cc3)c[nH]2)N(C(=O)[C@]23CC[C@@H](C4(C)CC4)[C@@H]2[C@H]2CC[C@@H]4[C@@]5(C)CC[C@H](OC(=O)CC(C)(C)C(=O)O)C(C)(C)[C@@H]5CC[C@@]4(C)[C@]2(C)CC3)C1 [Compound 67, 4-(((1R,3aS,5aR,5bR,7aR,9S,11aR,11bR,13aR,13bR)-3a-((2S,4R)-2-(4-(4-fluorophenyl)-1H-imidazol-2-yl)-4-(2-methoxyethoxy)pyrrolidine-1-carbonyl)-5a,5b,8,8,11a-pentamethyl-1-(1-methylcyclopropyl)icosahydro-1H-cyclopenta[a]chrysen-9-yl)oxy)-2,2-dimethyl-4-oxobutanoic acid] | 0.44 nM | 247 µg·h/mL | 12300 ng/mL | – | –
CC1([C@@H]2CC[C@]3(C(=O)N4CCC[C@H]4c4ncc(C(F)(F)F)[nH]4)CC[C@]4(C)[C@H](CC[C@@H]5[C@@]6(C)CC[C@H](OC(=O)[C@H]7C[C@@H](C(=O)O)C7(C)C)C(C)(C)[C@@H]6CC[C@]54C)[C@@H]23)CC1 [Compound 59, (1R,3S)-2,2-dimethyl-3-((((1R,3aS,5aR,5bR,7aR,9S,11aR,11bR,13aR,13bR)-5a,5b,8,8,11a-pentamethyl-1-(1-methylcyclopropyl)-3a-((S)-2-(5-(trifluoromethyl)-1H-imidazol-2-yl)pyrrolidine-1-carbonyl)icosahydro-1H-cyclopenta[a]chrysen-9-yl)oxy)carbonyl)cyclobutane-1-carboxylic acid] | 55.4 nM | 451 µg·h/mL | 15700 ng/mL | 71% | 100%
C=C(C)[C@@H]1CC[C@]2(C(=O)N3CCC[C@H]3c3nc4ccccc4[nH]3)CC[C@]3(C)[C@H](CC[C@@H]4[C@@]5(C)CC[C@H](OC(=O)[C@H]6C[C@@H](C(=O)O)C6(C)C)C(C)(C)[C@@H]5CC[C@]43C)[C@@H]12 [Compound 37] | 3.21 nM | 487 µg·h/mL | 16800 ng/mL | 99% | 99%
C=C(C)[C@@H]1CC[C@]2(C(=O)N3C[C@H](OCCOC)C[C@H]3c3nc(-c4cccnc4)c[nH]3)CC[C@]3(C)[C@H](CC[C@@H]4[C@@]5(C)CC[C@H](OC(=O)[C@H]6C[C@@H](C(=O)O)C6(C)C)C(C)(C)[C@@H]5CC[C@]43C)[C@@H]12 [Compound 10, (1R,3S)-3-((((1R,3aS,5aR,5bR,7aR,9S,11bR,11bR,13aR,13bR)-3a-((2S,4R)-4-(2-methoxyethoxy)-2-(4-(pyridin-3-yl)-1H-imidazol-2-yl)pyrrolidine-1-carbonyl)-5a,5b,8,8,11a-pentamethyl-1-(prop-1-en-2-yl)icosahydro-1H-cyclopenta[a]chrysen-9-yl)oxy)carbonyl)-2,2-dimethylcyclobutane-1-carboxylic acid] | 2.82 nM | 301 µg·h/mL | 17900 ng/mL | – | –
CC1([C@@H]2CC[C@]3(C(=O)N4CCC(c5ncc(-c6ccccc6)[nH]5)CC4)CC[C@]4(C)[C@H](CC[C@@H]5[C@@]6(C)CC[C@H](OC(=O)[C@H]7C[C@@H](C(=O)O)C7(C)C)C(C)(C)[C@@H]6CC[C@]54C)[C@@H]23)CC1 [Compound 57, (1R,3S)-2,2-dimethyl-3-((((1R,3aS,5aR,5bR,7aR,9S,11aR,11bR,13aR,13bR)-5a,5b,8,8,11a-pentamethyl-1-(1-methylcyclopropyl)-3a-(4-(5-phenyl-1H-imidazol-2-yl)piperidine-1-carbonyl)icosahydro-1H-cyclopenta[a]chrysen-9-yl)oxy)carbonyl)cyclobutane-1-carboxylic acid] | 4.42 nM | 66.4 µg·h/mL | 2790 ng/mL | – | –
CC(C)(CC(=O)O[C@H]1CC[C@]2(C)[C@H]3CC[C@@H]4[C@H]5[C@H](C6(C)CC6)CC[C@]5(C(=O)N5CCC[C@H]5c5ncc(-c6ccccn6)[nH]5)CC[C@@]4(C)[C@]3(C)CC[C@H]2C1(C)C)C(=O)O [Compound 62, 2,2-dimethyl-4-oxo-4-(((1R,3aS,5aR,5bR,7aR,9S,11aR,11bR,13aR,13bR)-5a,5b,8,8,11a-pentamethyl-1-(1-methylcyclopropyl)-3a-((S)-2-(5-(pyridin-2-yl)-1H-imidazol-2-yl)pyrrolidine-1-carbonyl)icosahydro-1H-cyclopenta[a]chrysen-9-yl)oxy)butanoic acid] | 0.8 nM | 93.1 µg·h/mL | 7120 ng/mL | – | –
CC(C)(CC(=O)O)CC(=O)O[C@H]1CC[C@]2(C)[C@H]3CC[C@@H]4[C@H]5[C@H](C6(C)CC6)CC[C@]5(C(=O)N5CCC[C@H]5c5ncc(-c6cccc(F)c6)[nH]5)CC[C@@]4(C)[C@]3(C)CC[C@H]2C1(C)C [Compound 64, 5-(((1R,3aS,5aR,5bR,7aR,9S,11aR,11bR,13aR,13bR)-3a-((S)-2-(5-(3-fluorophenyl)-1H-imidazol-2-yl)pyrrolidine-1-carbonyl)-5a,5b,8,8,11a-pentamethyl-1-(1-methylcyclopropyl)icosahydro-1H-cyclopenta[a]chrysen-9-yl)oxy)-3,3-dimethyl-5-oxopentanoic acid] | 14.6 nM | 105 µg·h/mL | 5250 ng/mL | – | –
C=C(C)[C@@H]1CC[C@]2(C(=O)N3CCC[C@H]3c3ncc(-c4ccccc4)[nH]3)CC[C@]3(C)[C@H](CC[C@@H]4[C@@]5(C)CC[C@H](OC(=O)C[C@H]6C[C@@H](C(=O)O)C6(C)C)C(C)(C)[C@@H]5CC[C@]43C)[C@@H]12 [Compound 21, (1R,3R)-2,2-dimethyl-3-(2-oxo-2-(((1R,3aS,5aR,5bR,7aR,9S,11aR,11bR,13aR,13bR)-5a,5b,8,8,11a-pentamethyl-3a-((S)-2-(5-phenyl-1H-imidazol-2-yl)pyrrolidine-1-carbonyl)-1-(prop-1-en-2-yl)icosahydro-1H-cyclopenta[a]chrysen-9-yl)oxy)ethyl)cyclo butane-1-carboxylic acid] | 1.29 nM | 269 µg·h/mL | 13000 ng/mL | – | –
CC1([C@@H]2CC[C@]3(C(=O)N4CCC[C@H]4c4ncc(-c5ccccn5)[nH]4)CC[C@]4(C)[C@H](CC[C@@H]5[C@@]6(C)CC[C@H](OC(=O)[C@H]7C[C@@H](C(=O)O)C7(C)C)C(C)(C)[C@@H]6CC[C@]54C)[C@@H]23)CC1 [Compound 51, (1R,3S)-2,2-dimethyl-3-((((1R,3aS,5aR,5bR,7aR,9S,11aR,11bR,13aR,13bR)-5a,5b,8,8,11a-pentamethyl-1-(1-methylcyclopropyl)-3a-((S)-2-(5-(pyridin-2-yl)-1H-imidazol-2-yl)pyrrolidine-1-carbonyl)icosahydro-1H-cyclopenta[a]chrysen-9-yl)oxy)carbonyl)cyclobutane-1-carboxylic acid] | 43.3 nM | 160 µg·h/mL | 4930 ng/mL | – | –
CC(C)(CC(=O)O[C@H]1CC[C@]2(C)[C@H]3CC[C@@H]4[C@H]5[C@H](C6(C)CC6)CC[C@]5(C(=O)N5CCC[C@H]5c5ncc(-c6cccc(F)c6)[nH]5)CC[C@@]4(C)[C@]3(C)CC[C@H]2C1(C)C)C(=O)O [Compound 65, 4-(((1R,3aS,5aR,5bR,7aR,9S,11aR,11bR,13aR,13bR)-3a-((S)-2-(5-(3-fluorophenyl)-1H-imidazol-2-yl)pyrrolidine-1-carbonyl)-5a,5b,8,8,11a-pentamethyl-1-(1-methylcyclopropyl)icosahydro-1H-cyclopenta[a]chrysen-9-yl)oxy)-2,2-dimethyl-4-oxobutanoic acid] | 15.7 nM | 203 µg·h/mL | 13300 ng/mL | – | –
C=C(C)[C@@H]1CC[C@]2(C(=O)N3C[C@H](OC)C[C@H]3c3nc(-c4ccccc4)c[nH]3)CC[C@]3(C)[C@H](CC[C@@H]4[C@@]5(C)CC[C@H](OC(=O)[C@H]6C[C@@H](C(=O)O)C6(C)C)C(C)(C)[C@@H]5CC[C@]43C)[C@@H]12 [Compound 32, (1R,3S)-3-((((1R,3aS,5aR,5bR,7aR,9S,11aR,11bR,13aR,13bR)-3a-((2S,4R)-4-methoxy-2-(4-phenyl-1H-imidazol-2-yl)pyrrolidine-1-carbonyl)-5a,5b,8,8,11a-pentamethyl-1-(prop-1-en-2-yl)icosahydro-1H-cyclopenta[a]chrysen-9-yl)oxy)carbonyl)-2,2-dimethylcyclobutane-1-carboxylic acid] | 23.3 nM | 316 µg·h/mL | 13900 ng/mL | 60% | 99%
C=C(C)[C@@H]1CC[C@]2(C(=O)N3CCC[C@H]3c3ncc[nH]3)CC[C@]3(C)[C@H](CC[C@@H]4[C@@]5(C)CC[C@H](OC(=O)[C@H]6C[C@@H](C(=O)O)C6(C)C)C(C)(C)[C@@H]5CC[C@]43C)[C@@H]12 [Compound 36, (1R,3S)-3-((((1R,3aS,5aR,5bR,7aR,9S,11aR,11bR,13aR,13bR)-3a-((S)-2-(1H-imidazol-2-yl)pyrrolidine-1-carbonyl)-5a,5b,8,8,11a-pentamethyl-1-(prop-1-en-2-yl)icosahydro-1H-cyclopenta[a]chrysen-9-yl)oxy)carbonyl)-2,2-dimethylcyclobutane-1-carboxylic acid] | 1.22 nM | 158 µg·h/mL | 10800 ng/mL | 98% | 100%

— US20170129916A1, “NOVEL BETULINIC PROLINE IMIDAZOLE DERIVATIVES AS HIV INHIBITORS” (HETERO RESEARCH FOUNDATION, priority 2014, published 2017)
